How the values were obtained:
Format in all cases: cell-based
Filaggrin = test: Western blotting of keratinocyte differentiation marker filaggrin in UVB-irradiated keratinocytes; conditions: human keratinocytes, coumestrol 1 μM, 5 μM, 10 μM, FIG. 3
Method: (§1) Human keratinocytes (normal human epidermal keratinocytes, NHEK) were cultured in a 6-well plate incubator. Specifically, the normal human epidermal keratinocytes were cultured by replacing it with phosphate-buffered saline (PBS) after 24 hours to irradiate UVB (25 mJ/cm^2) and then, adding cortisone (10 μM) to NHEK culture media having no hydrocortisone. Subsequently, the cell culture solution was collected to measure a cortisol concentration in an ELISA method, and the results are shown in FIG. 1.
(§2) In addition, after separating proteins from the human keratinocytes using a RIPA lysis buffer, protein expression of keratinocyte differentiation markers (KRT1, Filaggrin) was confirmed through western blotting, and the results are shown in FIGS. 2 and 3. Referring to FIGS. 2 and 3, in the wells containing the coumestrol (1 μM, 5 μM, 10 μM), gene expression of the keratinocyte differentiation markers (KRT1, Filaggrin) inhibited by the ultraviolet (UVB) rays was increased in the keratinocytes. In other words, the gene expression of the keratinocyte differentiation markers inhibited by the ultraviolet (UVB) rays in the keratinocytes was restored by the coumestrol, and accordingly, the coumestrol inhibited activity of the cortisone reductase and reduced the cortisol concentration, eventually restoring the gene expression of the keratinocyte differentiation markers.

[1] = target: T1, 11β-hydroxysteroid dehydrogenase type 1 (Homo sapiens, UniProt P28845); test: Cortisol concentration in cell culture solution of UVB-irradiated, cortisone-treated keratinocytes (ELISA); conditions: coumestrol 1 μM, 5 μM
T1 construct: endogenous in cells; host or cells: normal human epidermal keratinocytes (NHEK)
Method: as §1

keratin 1 (KRT1) = test: Western blotting of keratinocyte differentiation marker KRT1 in UVB-irradiated keratinocytes; conditions: human keratinocytes, coumestrol 1 μM, 5 μM, 10 μM, FIG. 2
Method: as §1, §2

T1 sequence (P28845 whole entry): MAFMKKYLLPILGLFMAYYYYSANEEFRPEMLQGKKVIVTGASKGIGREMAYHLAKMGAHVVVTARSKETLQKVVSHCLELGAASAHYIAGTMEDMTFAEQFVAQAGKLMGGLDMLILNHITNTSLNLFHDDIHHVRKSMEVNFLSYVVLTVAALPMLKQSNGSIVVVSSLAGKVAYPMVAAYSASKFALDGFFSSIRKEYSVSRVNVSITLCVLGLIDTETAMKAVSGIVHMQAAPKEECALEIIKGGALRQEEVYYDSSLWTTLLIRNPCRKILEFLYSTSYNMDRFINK

cortisol concentration in cell culture solution ([1]; NHEK, UVB 25 mJ/cm^2, cortisone 10 μM, compared with control before UV irradiation, FIG. 1): not significantly increased
activity of 11β-hydroxysteroid dehydrogenase type 1 (cortisone reductase) ([1]; conclusion from cortisol ELISA in NHEK, 10 μM): inhibit activity
SMILES: O=c1oc2cc(O)ccc2c2oc3cc(O)ccc3c12 [coumestrol]
expression of keratinocyte differentiation marker Filaggrin inhibited by UVB (Filaggrin): increased
expression of keratinocyte differentiation marker KRT1 inhibited by UVB (keratin 1 (KRT1)): increased

Source: patent US12569422B2, “Composition and method of inhibiting cortisone reductase by applying it to the skin” (AMOREPACIFIC CORPORATION, priority 2018, dated 2026)
